Measured values: patent US10227342B2 (ARIAD PHARMACEUTICALS, INC., priority 2014, dated 2019)

Key:
Assay type in all cases: cell-based
[1] = target: human EGFR exon 20 insertion ASV (V769_D770insASV) (Homo sapiens (Human), UniProt P00533, INS769ASV); experiment: Ba/F3-EGFR-Exon20-ASV cell anti-proliferative assay (CellTiter 96 MTS, 72 h); conditions: Ba/F3-EGFR-Exon20-ASV cells;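 further: Ba/F3 cells bearing the EGFR exon 20 ASV insertion, a line able to proliferate without IL-3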
[2] = target: human EGFR exon 20 insertion NPG (H773_V774insNPG) (Homo sapiens, UniProt P00533, INS773NPG, cells depend on it); experiment: Ba/F3-EGFR-Exon20-NPG cell anti-proliferative assay (CellTiter 96 MTS, 72 h); conditions: read-out: EGFR exon 20 NPG insertion IC50
[3] = target: human EGFR E746-A750 deletion and T790M Mutation (DT) (Homo sapiens (Human), UniProt P00533, DEL746-750/T790M); experiment: Ba/F3-EGFR-Del/T790M cell anti-proliferative assay (CellTiter 96 MTS, 72 h); conditions: Ba/F3-EGFR-Del/T790M cells; read-out: EGFR exon 19 deletion and T790M mutation IC50
[4] = target: human EGFR L858R and T790M double mutation (LT) (Homo sapiens (Human), UniProt P00533, L858R/T790M); experiment: Ba/F3-EGFR L858R/T790M cell anti-proliferative assay (CellTiter 96 MTS, 72 h); conditions: Ba/F3-EGFR L858R/T790M cells; read-out: EGFR exon 21 L858R and T790M mutation IC50;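 further: Ba/F3 cells carrying the EGFR L858R/T790M double mutant are able to grow without IL-3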
Method: An expression vector, pLVX-IRES puro (Clontech) coding for human EGFR L858R and T790M double mutation, was transfected into HEK293 cells by the Trans-Lentiviral ORF Packaging System (Thermo Scientific), to produce virus encoding EGFR L858R and T790M double mutations. […] Ba/F3 cells expressing EGFR L858R and T790M double mutation (named Ba/F3-EGFR L858R/T790M) can proliferate in the absence of IL-3. The anti-proliferative activity of compounds was determined as follows: BaF3-EGFR L858R/T790M cells seeded in 96 well plates (2500 cells/well) were treated with test compound (dissolved in DMSO) at a series of concentrations (4-fold dilution, top concentration: 10,000 nM). The plates were incubated for 72 h in a 37° C. incubator with 5% CO2, and the number of viable cells in each well were measured indirectly by CellTiter 96® Aqueous One Solution Cell Proliferation Assay (Promega; this assay is a colorimetric method for determining the number of viable cells through measurement of their metabolic activity by detection of enzymatic conversion of tetrazolium salts into blue formazan derivatives). Reagent (20 μL) was added into each well, and the plates were returned to the incubator for 2 h. The absorbance in each well was then measured at 490 nm using an Envision plate reader (Perkin Elmer).

[5] = target: Her2 exon 20 YVMA insertion (A775_G776ins YVMA) (Homo sapiens (Human), UniProt P04626, INS775YVMA); experiment: Ba/F3-Her2 Exon20 YVMA cell anti-proliferative assay (CellTiter 96 MTS, 72 h); conditions: Ba/F3-Her2 Exon20 YVMA cells
Source text: Ba/F3 cells expressing Her2 Exon20 YVMA insertions (named Ba/F3-Her2 Exon20 YVMA) can proliferate in the absence of IL-3.

Chain of human EGFR exon 20 insertion NPG (H773_V774insNPG) (P00533 with tags, fused parts or gaps INS773NPG limits assumed): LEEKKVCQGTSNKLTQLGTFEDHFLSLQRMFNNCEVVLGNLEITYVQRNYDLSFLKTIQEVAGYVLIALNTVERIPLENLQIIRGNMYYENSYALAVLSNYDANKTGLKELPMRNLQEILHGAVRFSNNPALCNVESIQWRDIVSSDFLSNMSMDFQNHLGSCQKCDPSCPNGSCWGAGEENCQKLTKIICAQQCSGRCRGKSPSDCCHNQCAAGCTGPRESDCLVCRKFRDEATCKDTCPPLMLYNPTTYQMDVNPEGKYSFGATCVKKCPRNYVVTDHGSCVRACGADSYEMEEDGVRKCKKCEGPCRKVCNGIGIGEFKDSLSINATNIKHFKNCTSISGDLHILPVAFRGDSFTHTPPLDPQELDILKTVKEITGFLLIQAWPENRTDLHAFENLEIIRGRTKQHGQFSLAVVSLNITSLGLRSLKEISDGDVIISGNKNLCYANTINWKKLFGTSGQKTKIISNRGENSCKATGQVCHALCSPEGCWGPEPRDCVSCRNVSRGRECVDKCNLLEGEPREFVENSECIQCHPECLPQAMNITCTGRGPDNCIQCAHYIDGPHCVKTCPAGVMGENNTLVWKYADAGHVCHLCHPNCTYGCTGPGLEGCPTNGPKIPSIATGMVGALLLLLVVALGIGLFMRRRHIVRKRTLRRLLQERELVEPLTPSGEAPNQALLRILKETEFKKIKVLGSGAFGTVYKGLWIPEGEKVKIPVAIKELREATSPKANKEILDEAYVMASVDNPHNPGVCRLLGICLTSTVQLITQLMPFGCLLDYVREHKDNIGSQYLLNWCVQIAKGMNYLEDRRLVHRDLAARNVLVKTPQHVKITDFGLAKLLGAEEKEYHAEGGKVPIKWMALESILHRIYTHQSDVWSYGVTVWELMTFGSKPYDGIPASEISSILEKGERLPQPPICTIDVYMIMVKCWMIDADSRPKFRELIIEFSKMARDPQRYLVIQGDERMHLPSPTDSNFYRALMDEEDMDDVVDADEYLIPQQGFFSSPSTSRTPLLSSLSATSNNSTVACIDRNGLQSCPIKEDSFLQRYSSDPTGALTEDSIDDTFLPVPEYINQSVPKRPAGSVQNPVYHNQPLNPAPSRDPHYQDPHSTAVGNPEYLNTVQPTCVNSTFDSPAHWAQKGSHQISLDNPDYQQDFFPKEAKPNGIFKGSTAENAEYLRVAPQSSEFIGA
Chain of Her2 exon 20 YVMA insertion (A775_G776ins YVMA) (P04626 other isoform, or with tags, fused parts or gaps ins YVMA behind 775): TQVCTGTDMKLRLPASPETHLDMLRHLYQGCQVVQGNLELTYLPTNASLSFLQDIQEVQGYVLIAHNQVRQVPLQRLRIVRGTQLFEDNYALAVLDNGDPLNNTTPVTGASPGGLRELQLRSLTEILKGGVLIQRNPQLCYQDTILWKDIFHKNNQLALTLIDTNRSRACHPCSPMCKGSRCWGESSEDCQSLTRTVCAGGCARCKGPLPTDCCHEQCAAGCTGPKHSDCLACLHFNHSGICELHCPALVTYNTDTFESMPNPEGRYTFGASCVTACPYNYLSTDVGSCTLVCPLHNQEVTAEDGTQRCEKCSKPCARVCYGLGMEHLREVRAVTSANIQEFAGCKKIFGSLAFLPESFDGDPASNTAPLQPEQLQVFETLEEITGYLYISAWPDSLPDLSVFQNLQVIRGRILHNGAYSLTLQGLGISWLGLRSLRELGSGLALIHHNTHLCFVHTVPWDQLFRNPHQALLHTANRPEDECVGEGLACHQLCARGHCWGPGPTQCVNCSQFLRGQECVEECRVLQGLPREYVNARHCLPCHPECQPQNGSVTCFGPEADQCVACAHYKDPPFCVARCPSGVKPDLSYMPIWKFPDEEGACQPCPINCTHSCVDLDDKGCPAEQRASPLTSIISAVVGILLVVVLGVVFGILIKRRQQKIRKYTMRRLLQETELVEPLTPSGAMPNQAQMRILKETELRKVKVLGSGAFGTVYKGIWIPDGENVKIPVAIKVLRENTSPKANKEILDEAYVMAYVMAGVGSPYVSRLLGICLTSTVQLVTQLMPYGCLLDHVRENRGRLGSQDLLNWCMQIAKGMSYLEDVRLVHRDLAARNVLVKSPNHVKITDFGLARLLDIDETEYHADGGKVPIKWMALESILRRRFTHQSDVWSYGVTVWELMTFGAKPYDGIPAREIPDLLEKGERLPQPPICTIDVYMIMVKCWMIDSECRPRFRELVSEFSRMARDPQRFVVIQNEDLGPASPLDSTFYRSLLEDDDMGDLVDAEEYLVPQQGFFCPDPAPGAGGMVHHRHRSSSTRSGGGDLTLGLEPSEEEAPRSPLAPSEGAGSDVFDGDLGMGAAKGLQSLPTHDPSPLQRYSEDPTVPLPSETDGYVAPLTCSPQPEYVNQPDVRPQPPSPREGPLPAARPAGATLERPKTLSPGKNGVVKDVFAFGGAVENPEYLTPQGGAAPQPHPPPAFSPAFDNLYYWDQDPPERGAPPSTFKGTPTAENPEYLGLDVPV
Chain of human EGFR E746-A750 deletion and T790M Mutation (DT) (P00533 other isoform, or with tags, fused parts or gaps T790M/del E746-A750): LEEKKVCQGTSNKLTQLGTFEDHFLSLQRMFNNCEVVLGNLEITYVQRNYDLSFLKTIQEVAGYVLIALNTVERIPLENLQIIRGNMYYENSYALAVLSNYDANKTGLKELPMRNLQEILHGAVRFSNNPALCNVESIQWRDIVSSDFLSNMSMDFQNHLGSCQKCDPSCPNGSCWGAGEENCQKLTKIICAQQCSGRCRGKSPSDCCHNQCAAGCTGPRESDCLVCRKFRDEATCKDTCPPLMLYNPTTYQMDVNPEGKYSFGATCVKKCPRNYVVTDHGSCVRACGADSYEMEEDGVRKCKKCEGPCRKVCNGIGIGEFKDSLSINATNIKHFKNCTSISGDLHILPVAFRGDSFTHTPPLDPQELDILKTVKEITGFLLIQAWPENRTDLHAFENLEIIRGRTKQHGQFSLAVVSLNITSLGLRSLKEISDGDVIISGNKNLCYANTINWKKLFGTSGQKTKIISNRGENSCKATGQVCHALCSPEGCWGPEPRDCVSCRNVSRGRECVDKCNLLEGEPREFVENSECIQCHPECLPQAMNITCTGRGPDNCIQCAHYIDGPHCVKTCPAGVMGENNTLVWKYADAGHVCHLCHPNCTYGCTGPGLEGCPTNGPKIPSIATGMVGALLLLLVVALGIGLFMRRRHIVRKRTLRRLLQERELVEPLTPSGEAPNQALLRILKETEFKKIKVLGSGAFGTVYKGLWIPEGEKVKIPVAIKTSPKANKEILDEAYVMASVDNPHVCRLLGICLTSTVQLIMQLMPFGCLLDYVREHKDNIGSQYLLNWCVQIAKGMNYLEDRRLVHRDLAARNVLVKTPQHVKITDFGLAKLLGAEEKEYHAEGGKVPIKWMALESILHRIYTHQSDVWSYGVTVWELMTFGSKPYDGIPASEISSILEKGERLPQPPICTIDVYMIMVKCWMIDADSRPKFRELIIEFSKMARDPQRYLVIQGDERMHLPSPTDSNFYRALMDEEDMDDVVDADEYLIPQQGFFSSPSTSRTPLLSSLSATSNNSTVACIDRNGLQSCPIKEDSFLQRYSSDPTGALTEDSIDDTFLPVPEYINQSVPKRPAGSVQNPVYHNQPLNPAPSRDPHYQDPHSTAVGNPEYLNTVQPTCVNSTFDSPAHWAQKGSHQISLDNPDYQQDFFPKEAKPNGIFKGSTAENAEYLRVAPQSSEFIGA
Chain of human EGFR L858R and T790M double mutation (LT) (P00533 25-1210 T790M/L858R): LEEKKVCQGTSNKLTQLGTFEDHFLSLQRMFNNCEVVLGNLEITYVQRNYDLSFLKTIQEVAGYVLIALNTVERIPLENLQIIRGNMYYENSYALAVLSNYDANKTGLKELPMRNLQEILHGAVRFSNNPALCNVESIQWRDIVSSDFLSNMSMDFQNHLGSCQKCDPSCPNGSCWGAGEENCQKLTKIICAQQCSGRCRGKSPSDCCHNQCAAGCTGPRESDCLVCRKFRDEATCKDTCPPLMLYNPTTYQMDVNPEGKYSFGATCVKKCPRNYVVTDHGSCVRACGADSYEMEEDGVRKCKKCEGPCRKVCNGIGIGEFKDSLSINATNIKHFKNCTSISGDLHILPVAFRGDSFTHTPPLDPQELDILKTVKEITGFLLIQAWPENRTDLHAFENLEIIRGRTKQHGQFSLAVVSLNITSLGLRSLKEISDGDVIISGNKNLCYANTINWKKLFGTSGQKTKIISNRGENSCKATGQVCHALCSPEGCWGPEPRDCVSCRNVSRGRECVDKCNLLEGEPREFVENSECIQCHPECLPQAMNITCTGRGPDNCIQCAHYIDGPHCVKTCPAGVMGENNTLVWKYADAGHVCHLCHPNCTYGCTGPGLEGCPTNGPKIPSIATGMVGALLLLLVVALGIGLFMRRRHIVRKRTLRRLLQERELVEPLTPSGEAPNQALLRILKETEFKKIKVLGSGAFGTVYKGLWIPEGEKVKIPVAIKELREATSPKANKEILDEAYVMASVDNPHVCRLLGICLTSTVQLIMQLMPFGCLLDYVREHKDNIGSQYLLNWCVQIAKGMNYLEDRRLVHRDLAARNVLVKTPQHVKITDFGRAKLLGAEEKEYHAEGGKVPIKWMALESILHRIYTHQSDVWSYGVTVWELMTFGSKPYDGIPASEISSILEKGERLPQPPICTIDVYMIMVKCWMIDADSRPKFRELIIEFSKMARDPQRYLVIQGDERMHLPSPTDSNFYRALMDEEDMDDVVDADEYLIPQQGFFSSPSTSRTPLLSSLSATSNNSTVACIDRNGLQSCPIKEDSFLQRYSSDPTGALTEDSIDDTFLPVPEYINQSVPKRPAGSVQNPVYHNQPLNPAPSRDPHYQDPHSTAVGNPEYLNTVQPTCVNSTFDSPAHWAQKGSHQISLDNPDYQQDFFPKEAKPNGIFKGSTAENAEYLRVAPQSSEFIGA

Row | SMILES | IC50 [1] [nM] | IC50 [2] [nM] | IC50 [3] [nM] | IC50 [4] [nM] | IC50 [5] [nM]
1 | C=CC(=O)Nc1cc(Nc2ncc(C(=O)OC(C)C)c(-c3cn(CC)c4ccccc34)n2)c(OC)cc1N(C)CCN(C)C [Example 77, isopropyl 2-((5-acrylamido-4-((2-(dimethylamino)ethyl)(methyl)amino)-2-methoxyphenyl)amino)-4-(1-ethyl-1H-indol-3-yl)pyrimidine-5-carboxylate] | < 100 | < 100 | < 100 | < 100 | < 100
2 | C=CC(=O)Nc1cc(Nc2ncc(C(=O)OC(C)C)c(-c3c[nH]c4ccccc34)n2)c(OC)cc1N(C)CCN(C)C [Example 30, isopropyl 2-((5-acrylamido-4-((2-(dimethylamino)ethyl)(methyl)amino)-2-methoxyphenyl)amino)-4-(1H-indol-3-yl)pyrimidine-5-carboxylate] | < 100 | < 100 | < 100 | < 100 | < 100
3 | C=CC(=O)Nc1cc(Nc2nccc(-c3c(-c4ccccc4)n(C)c4ccccc34)n2)c(OC)cc1N(C)CCN(C)C [Example 7, N-(2-((2-(dimethylamino)ethyl)(methyl)amino)-4-methoxy-5-((4-(1-methyl-2-phenyl-1H-indol-3-yl)pyrimidin-2-yl)amino)phenyl)acrylamide] | 100 to 500 | < 100 | < 100 | < 100 | 100 to 500
4 | C=CC(=O)Nc1cc(Nc2ncc(C(=O)OC(C)C)c(-c3cn(C)c4ncccc34)n2)c(OC)cc1N(C)CCN(C)C [Example 34, isopropyl 2-((5-acrylamido-4-((2-(dimethylamino)ethyl)(methyl)amino)-2-methoxyphenyl)amino)-4-(1-methyl-1H-pyrrolo[2,3-b]pyridin-3-yl)pyrimidine-5-carboxylate] | < 100 | < 100 | < 100 | < 100 | < 100
5 | C=CC(=O)Nc1cc(Nc2ncc(C(=O)OC(C)C)c(-c3cn(C)c4ccccc34)n2)c(OC)cc1N(C)C[C@@H]1CCCN1 [Example 73] | < 100 | < 100 | < 100 | < 100 | < 100
6 | C=CC(=O)Nc1cc(Nc2ncc(Cl)c(-c3c[nH]c4ccccc34)n2)c(OC)cc1N(C)CCN(C)C [Example 56, N-(5-((5-chloro-4-(1H-indol-3-yl)pyrimidin-2-yl)amino)-2-((2-(dimethylamino)ethyl)(methyl)amino)-4-methoxyphenyl)acrylamide] | < 100 | < 100 | < 100 | < 100 | < 100
